According to patent publication US9545100B2, “Pesticidal compositions for insects and arthropods” (Stratacor, Inc., priority 2009, dated 2017):
Like-named read-outs stand apart in the source and are kept apart here.

Columns and labels:
eggs of Aedes aegypti = conditions: Cline 1972; cited from earlier work
Aedes aegypti mosquitoes [1] = experiment: Olfactometer vapor phase repellency; type: in vivo; conditions: FIG. 1
From the text: As frequently seen in homologous series of insect repellents (Skinner, W. A. and Johnson, H. L. The design of insect repellents. In: Drug Design, Vol. 10, E J Ariens, Ed., Academic Press, New York, pp. 277-305, 1980), activity at lower chain length is limited by lack of persistence due to high volatility. Activity at higher chain length is limited by lack of volatility, as mosquito repellents are required to have a minimum effective evaporation rate (Reifenrath, W. G. and Robinson, P. B. In Vitro Skin Evaporation and Penetration Characteristics of mosquito repellents. J. Pharm. Sci, 71:1014-1018, 1982; Reifenrath, W. G. and Spencer, T. S. Evaporation and penetration from skin. In: Percutaneous Absorption Mechanisms Methodology Drug Delivery, R L Bronaugh and H I Maibach, Eds., 1st Ed., Marcel Dekker, New York, pp. 305-325, 1985).
The straight chain fatty acids octanoic, nonanoic, decanoic, undecanoic, and lauric are designated as C8 through C12, respectively; 3-methylpentanoic acid as 3MPENTAN, 3-methyl-2-pentenoic acid as 3M2PENTEN, 2-octenoic acid as 2OCTEN, 3-methyl-2-octenoic acid as 3M2OCTEN, and 4-methyloctanoic acid as 4MOCTAN. N,N-Diethyl-m-toluamide is designated as DEET.

[2] = 20° C.; cited from earlier work
Aedes aegypti mosquitoes [3] = test system: Aedes aegypti mosquitoes
Protocol: Fifteen female Aedes aegypti mosquitoes were placed in the dishes and their fate observed over a 48 hour period.
To further investigate the incapacitating and lethal effect of the C8910 composition, water dispersions of the same formulation of C8910 were tested in the laboratory against Aedes aegypti mosquitoes. Graded dilutions of C8910/Kaolin-P were prepared by dispersing the powder in water (2 grams of powder in 100 ml of water, the concentration used in the field) where the lowest concentration was 0.0075% (Table 1). One ml of each dispersion was evenly pipetted over a disk of filter paper (9 cm diameter, Whatman No. 1) contained in disposable petri dishes. Approximately 15 female Aedes aegypti mosquitoes, 6-10 days of age, were placed in the Petri dishes and covered to prevent mosquito escape. The dishes were maintained in an environmental chamber (76-80° F. and approximately 60% humidity) and observations were made of incapacitation and mortality at various times after treatments (Table 1).

[4] = emulsion formulations; cited from earlier work
Aedes aegypti = experiment: Minimum effective dose to repel mosquitoes, applied to the skin; type: in vivo
Protocol: Notes: • 1. Even at the lowest dose (1.18 ug/cm2), there are behavioral effects from […]. […] After 16 minutes exposure, mosquitoes were transferred to fresh plates containing only distilled water. […] […] and DEET (N,N-diethyl-m-toluamide) have similar potencies to repel Aedes aegypti when both are applied to the skin. The minimum effective dose (MED) of […] to repel mosquitoes is estimated at 25 ug/cm^2, the measured MED value for DEET.

[5] = test system: Aedes aegypti instar IV larvae and pupae; conditions: Quraishi and Thorsteinson 1965; cited from earlier work
house fly larvae = conditions: Levinson and Simon Ascher 1954; cited from earlier work
[6] = 0.3000% in water dispersion, dose 47 ug/cm2

For CCCCCCCCC(=O)O [C9, nonanoic acid], the ovicidal activity (eggs of Aedes aegypti) is given as “ovicidal activity” and the repellency in olfactometer (Aedes aegypti mosquitoes [1]) is given as “at or near the top of the repellency”.
For CCCCCCCC(=O)O [C8, octanoic acid], the ovicidal activity (eggs of Aedes aegypti) is given as “ovicidal activity” and the repellency in olfactometer (Aedes aegypti mosquitoes [1]) is given as “at or near the top of the repellency”.
In the case of CC1(C)C(C=C(Cl)Cl)C1C(=O)OCc1cccc(Oc2ccccc2)c1 (stereo not shown) [permethrin], the vapor pressure [2] is given as “about 10^−8 mm Hg”, the reversibility of incapacitation (flies; dose of 4.7 ug/cm^2) is given as “irreversible” and the reversibility of incapacitation (Aedes aegypti mosquitoes [3]; dose of 4.7 ug/cm^2) is given as “irreversible”. The skin absorption [4] was “about 30%”.
With CCCCCCCCCC(=O)O [C10, decanoic acid] the repellency in olfactometer (Aedes aegypti mosquitoes [1]) was “at or near the top of the repellency”.
For CC(O)C(=O)O (stereo not shown) [Lactic Acid, lactic acid], the toxicity to flies (flies; test of acidic pH) was “nontoxic to flies”, the “% Incapac. in 10 m exp.” value (Aedes aegypti mosquitoes [3]; [6]) was 0% and the “% Incapac. in 25 m exp.” value (Aedes aegypti mosquitoes [3]; [6]) was 0%. The “% Incapac. in 24 h exp.” value (Aedes aegypti mosquitoes [3]; [6]) was 17%, the “% motality at 24 hours” value (Aedes aegypti mosquitoes [3]; [6]) was 17% and the “% motality at 48 hours” value (Aedes aegypti mosquitoes [3]; [6]) was 17%. For the same compound, the “% Incapac. in 10 m exp.” value (Aedes aegypti mosquitoes [3]; 0.3000% in water dispersion, dose 47 ug/cm2, listed as lactic acid) was “no incapacitation” and the “number dead, noted beside % Incapac. in 24 h exp.” value (Aedes aegypti mosquitoes [3]; 0.3000%, dose 47 ug/cm2) was “(2 dead)”.
For CCN(CC)C(=O)c1cccc(C)c1 [DEET, N,N-diethyl-m-toluamide], the “minimum effective dose (MED) to repel mosquitoes” value (Aedes aegypti) was 25 ug/cm^2, the immediate incapacitation (flies; 47 ug/cm^2) was “did not involve immediate incapacitation” and the “mortality at 24 hours” value (flies; 47 ug/cm^2) was “did cause fly and mosquito mortality”. The immediate incapacitation (Aedes aegypti mosquitoes [3]; 47 ug/cm^2) was “did not involve immediate incapacitation” and the “mortality at 24 hours” value (Aedes aegypti mosquitoes [3]; 47 ug/cm^2) was “did cause fly and mosquito mortality”.
In the case of C=CCCCCCCCCC(=O)O [undecylenic], the ovicidal activity (eggs of Aedes aegypti) is listed as “ovicidal activity”.
For CCCCCCCCCCCC(=O)O [Lauric acid, lauric acid], the “toxicity to instar IV larvae and pupae” value [5] is given as “not”, the “larvicidal activity for housefly larvae” value (house fly larvae) is given as “declining activity” and the toxicity to flies (flies; EC formulation) is given as “non-toxic”.
With CCN(CC)CC(=O)Nc1c(C)cccc1C [lidocaine free base, lidocaine] the fly incapacitation (flies; freshly prepared aqueous emulsions 47 ug/cm^2 or 15% concentration in mineral oil) was “did not cause fly incapacitation”.
For CCCCCCCCCCC(=O)O [undecanoic acid], the “larvicidal activity for housefly larvae” value (house fly larvae) is given as “declining activity”.
